Laboratory results published in patent US12545668B2, “Cyclic amine derivative as agent for promoting advillin function, and novel cyclic amine derivative and pharmaceutical use thereof” (Toray Industries, Inc., priority 2018, dated 2026).

Assays:
[1] = test system: sciatic nerve of a rat spinal nerve ligation model; assay: Actin filament/actin monomer ratio in the sciatic nerve of rat spinal nerve ligation model; format: in vivo
Source text: The effect of the cyclic amine derivative (I) or a pharmacologically acceptable salt thereof on a ratio between the amount of actin filaments and the amount of actin monomers in the sciatic nerve of a rat spinal nerve ligation model was examined.
Male SD rats (manufactured by Charles River Laboratories Japan, Inc.) of 6 weeks old were used. Each rat spinal nerve ligation model was produced by resecting the spine vertebral arch by incision of the right lower back under isoflurane inhalation anesthesia, completely ligating L5 and L6 nerve roots of the spinal nerve, and then suturing the muscular layer and the skin. As a negative control (sham-operation group), the right L5 and L6 nerves were exposed, and then the muscular layer and the skin were sutured similarly without ligation. One week after the nerve ligation, the rats were used to perform the following experiment. […]
For quantitative determination of actin filaments and actin monomers, G-actin/F-actin in vivo assay kit (manufactured by Cytoskeleton Inc.) was used. […] The amount of actin in each of the actin monomer sample and the actin filament sample was measured by Western blotting. […] Luminescence intensity of a band corresponding to actin was quantitatively determined using Image Lab software (manufactured by Bio-Rad). […]

[2] = test system: F11 cells (rat dorsal root ganglion neuron cell line); assay: Effect of decreasing intracellular actin filaments in F11 cells with oxaliplatin-induced axonal injury (phalloidin staining); format: cell-based; settings: F-11 rat/mouse fusion cell line, F11, 120 h, compound 10 μM with oxaliplatin 15 μM, 5 days; compared to oxaliplatin alone treated group; average of five samples; read-out: Decreasing Rate of Intracellular Actin Filament (%)
Source text: The effect of the cyclic amine derivative (I) or a pharmacologically acceptable salt thereof on the amount of intracellular actin filaments in F11 cells (rat dorsal root ganglion neuron cell line) was examined.
As test compounds, the compounds of Examples 1, 2, 3, 4, 5, 6, 7, 8, and 9 were used.
As compounds of comparative examples, 1-(4-(dimethylamino)piperidin-1-yl)-3-(1-ethyl-1H-imidazol-2-yl)-3-hydroxypropan-1-one (hereinafter, the compound of Comparative Example 1), 1-(4-(dimethylamino)piperidin-1-yl)-3-hydroxy-3-(1-(2,2,2-trifluoroethyl)-1H-imidazol-2-yl)propan-1-one (hereinafter, the compound of Comparative Example 2), 1-((R)-3-(dimethylamino)pyrrolidin-1-yl)-3-hydroxy-3-(1-methyl-1H-imidazol-2-yl)propan-1-one (hereinafter, the compound of Comparative Example 3), and 1-((R)-[…]-3-hydroxy-3-(1-methyl-1H-imidazol-2-yl)propan-1-one (hereinafter, the compound of Comparative Example 4) shown in Table 4 were used. The compounds of Comparative Examples 1, 2, 3, and 4 were synthesized in accordance with methods described in International Publication No. WO2016/136944.
For peeling the F11 cells off from a culture flask, 0.25% Trypsin/EDTA (manufactured by Thermo Fisher Scientific K.K.) was added to the cells, followed by incubation at room temperature for several minutes. Thereafter, 10% fetal bovine serum-containing DMEM medium (manufactured by Thermo Fisher Scientific K.K.) was added thereto for suspension, and the resultant centrifuged at 1,500 rpm for 1 minute. After removing the resultant centrifugal supernatant, 0.5% fetal bovine serum-containing DMEM medium was added thereto for suspending cells therein, and the resultant seeded in a poly-D-lysine-coated 96 well plate (manufactured by BD Biosciences) coated with laminin (2 μg/cm^2, manufactured by Sigma Aldrich) to be cultured at 37° C. under an environment of 5% CO2. Two hours after seeding the cells, N,N-dibutyladenosine 3′,5′-phosphate (final concentration 1 mM, manufactured by Sigma Aldrich) and recombinant rat GDNF (final concentration 50 ng/mL, manufactured by PeproTech) were added thereto to culture the cells at 37° C. under an environment of 5% CO2 for 7 days for differentiation.
Seven days after starting the culture, the medium was exchanged with 0.5% fetal bovine serum-containing DMEM medium containing oxaliplatin (final concentration 15 μM), and the resultant cultured for 5 days to induce axonal injury. Each of the compounds of Examples and Comparative Examples was caused to be contained in the medium (final concentration 10 μM) for treatment in the same manner as oxaliplatin.
Five days after treatment with oxaliplatin and each of the compounds, the resultant cells were washed with PBS(−) three times, a 4% paraformaldehyde-phosphate buffer (manufactured by Wako Pure Chemical Industries Ltd.) was added thereto, and the resultant allowed to stand still at room temperature for 10 minutes to fix the cells. Acti-stain 670 phalloidin (manufactured by Cytoskeleton Inc.) was added thereto, and the resultant incubated at room temperature for 30 minutes to stain actin filaments. An image of the cells was acquired using IN Cell Analyzer 2200 (manufactured by GE Healthcare), and the image analyzed using IN Cell Investigator Developer Toolbox. The amount of intracellular actin filaments was indicated by the amount of fluorescence (density) of fluorescent-labeled phalloidin binding to the actin filaments.
In a group treated with oxaliplatin alone (hereinafter, the oxaliplatin alone treated group), the amount of intracellular actin filaments increased by 5% compared to that in a group not treated with oxaliplatin. […] A decreasing rate of intracellular actin filaments, caused by each compound compared to the amount of intracellular actin filaments of the oxaliplatin alone treated group was calculated. […]

CN(C)C1CCN(C(=O)C[C@H](O)c2nccn2C)CC1 [Example 7, (S)-1-(4-(dimethylamino)piperidin-1-yl)-3-hydroxy-3-(1-methyl-1H-imidazol-2-yl)propan-1-one]
actin filament/actin monomer ratio compared to the distilled water administration group ([1]; oral 60 mg/kg once a day for 2 days, sciatic nerve, p<0.025 Williams): significantly reduced
actin filament/actin monomer ratio ([1]; oral 6, 20 and 60 mg/kg once a day for 2 days, sciatic nerve 3 hours after last administration, FIG. 3b): reduced as the dose of the compound of Example 7 was increased
inhibition at 10 µM [2]: ≥ 5%
